Data taken from PMC4987650, “Structural Investigation of Park’s Nucleotide on Bacterial Translocase MraY: Discovery of Unexpected MraY Inhibitors” (Scientific Reports, 2016).

Key:
Assay type in all cases: biochemical
[1] = biological target: T1, MraYBS (Bacillus subtilis, UniProt Q03521); assay: HPLC-based MraY functional assay (substrate activity)
T1 construct: MBP; made in house
T1 sequence (Q03521 1-324): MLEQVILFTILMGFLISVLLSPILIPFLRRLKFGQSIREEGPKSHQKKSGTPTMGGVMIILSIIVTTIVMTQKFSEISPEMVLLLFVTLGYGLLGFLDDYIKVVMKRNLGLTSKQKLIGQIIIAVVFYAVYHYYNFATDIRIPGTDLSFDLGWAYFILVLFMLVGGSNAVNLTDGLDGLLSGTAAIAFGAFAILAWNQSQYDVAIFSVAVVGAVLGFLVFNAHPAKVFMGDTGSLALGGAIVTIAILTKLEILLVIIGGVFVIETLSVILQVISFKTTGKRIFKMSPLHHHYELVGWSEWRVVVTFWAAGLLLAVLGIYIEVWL
Experimental: The purified MraY from Bacillus subtilis was prepared as described in our previous reports. […] […] The reaction mixtures were added by uridine (0.01 mg/mL) as the internal standard and heated to 100 °C to stop the transferring reaction. The samples were analyzed by RP-C18 HPLC with gradient elution of 0.25 M NH4HCO3(aq)/15% MeOH in water (100:0 to 0:100) at a flow rate of 1 mL/min over 45 min, and the peaks of substrates were monitored at UV 260 nm. For 6 and 11–17, the reaction mixture containing MraYBS (10 μg/mL), C55P (200 μM), 6-(7-Nitro-2,1,3-benzoxadiazol-4-ylamino)hexanoic acid (5 μM, internal standard) in 10 μL reaction buffer (30 mM Tris, 10 mM MgCl2, 10 mM NaCl, 0.1 mM Tween-20, 2.5% DMSO, pH 8.0) were pre-incubated at 37 °C for 15 min. […] The reaction mixtures were heated to 100 °C to stop the transferring reaction, and samples were analyzed by an anion-exchange column (SAX1, Supelco Co., 5 μm, 4.6 × 250 mm) with a linear gradient elution of NH4OAc (20 mM to 1 M in MeOH) at a flow rate of 1.0 mL/min over 30 min. The fluorescent substrates were monitored with λex 466 nm/λem 535 nm by fluorescence detector.

[2] = biological target: T2, MraYBS W297A mutant (Bacillus subtilis, UniProt Q03521, W297A); assay: HPLC-based MraY functional assay, mutant MraY; conditions: consumption of 6 in one-hour reaction
T2 construct: MBP; made in house
Experimental: (§1) The purified MraY from Bacillus subtilis was prepared as described in our previous reports. For 5 and 7–10, the reaction mixture containing MraYBS (10 μg/mL), C55P (200 μM) in 40 μL reaction buffer (30 mM Tris, 10 mM MgCl2, 10 mM NaCl, 0.1 mM Tween-20, 2.5% DMSO, pH 8.0) were pre-incubated at 37 °C for 15 min. The reactions were initiated by the addition of Park’s nucleotide analogues (10 μM) and incubated at 37 °C for 1 h. The reaction mixtures were added by uridine (0.01 mg/mL) as the internal standard and heated to 100 °C to stop the transferring reaction. The samples were analyzed by RP-C18 HPLC with gradient elution of 0.25 M NH4HCO3(aq)/15% MeOH in water (100:0 to 0:100) at a flow rate of 1 mL/min over 45 min, and the peaks of substrates were monitored at UV 260 nm. […] The reaction mixtures were heated to 100 °C to stop the transferring reaction, and samples were analyzed by an anion-exchange column (SAX1, Supelco Co., 5 μm, 4.6 × 250 mm) with a linear gradient elution of NH4OAc (20 mM to 1 M in MeOH) at a flow rate of 1.0 mL/min over 30 min. The fluorescent substrates were monitored with λex 466 nm/λem 535 nm by fluorescence detector. […]

[3] = biological target: T3, MraYBS F228A mutant (Bacillus subtilis, UniProt Q03521, F228A); assay: HPLC-based MraY functional assay, mutant MraY; conditions: consumption of 6 in one-hour reaction
T3 construct: MBP; made in house
Experimental: as §1

[4] = biological target: T4, MraYBS R281A mutant (Bacillus subtilis, UniProt Q03521, R281A); assay: HPLC-based MraY functional assay, mutant MraY; conditions: consumption of 6 in one-hour reaction
T4 construct: MBP; made in house
Experimental: as §1

[5] = biological target: T5, MraYBS T51A mutant (Bacillus subtilis, UniProt Q03521, T51A); assay: HPLC-based MraY functional assay, mutant MraY; conditions: consumption of 6 in one-hour reaction
T5 construct: MBP; made in house
Experimental: as §1

`CC(=O)N[C@H]1[C@@H](OP(=O)(O)OP(=O)(O)OC[C@H]2O[C@@H](n3ccc(=O)[nH]c3=O)[C@H](O)[C@@H]2O)O[C@H](CO)[C@@H](O)[C@@H]1O[C@H](C)C(=O)N[C@@H](C)C(=O)N[C@H](CCC(=O)N[C@@H](CCCCNC(=O)CCCCCNc1ccc([N+](=O)[O-])c2nonc12)C(=O)N[C@H](C)C(=O)N[C@H](C)C(=O)O)C(=O)O` [Compound 6, NBD-Park’s nucleotide] was tested, and the substrate consumption ([1]; C55P (200 μM) as polyprenyl phosphate substrate, substrate 10 μM, within 1 h (60 min)) was “completely consumed”, the Relative activity ([1]; WT MraYBS, consumption of 6 in one-hour reaction) was 100% and the Relative activity [2] was 17%. It also gave a Relative activity [3] of 98%, a Relative activity [4] of 81% and a Relative activity [5] of 60%.
